Assay [1] concerns the target T1, PI3K alpha (Homo sapiens, UniProt P42336).
T1 construct: for the p110-a subunit (with a deletion of the first 20 amino acids) are generated; His tag (C); made in house; host or cells: baculovirus BV1075; Tn5 (Trichoplusia ni) or TiniPro insect cells
The experiment in a line: Enzymatic PI3K alpha isoform inhibition (lipid kinase activity, Kinase-Glo). The note with it: enzymatic assay. The format is biochemical. As for the experimental part: (§1) The components of the assay are added per well as follows:
(§2) IC50 is determined by a four parameter curve fitting routine that comes along with “excel fit”.
(§3) Yet alternatively, for an ATP depletion assay, compounds of the formula I to be tested are dissolved in DMSO and directly distributed into a white 384-well plate at 0.5 μl per well. To start the reaction, 10 μl of 10 nM PI3 kinase and 5 μg/ml 1-alpha-phosphatidylinositol (PI) are added into each well followed by 10 μl of 2 μM ATP. The reaction is performed until approx 50% of the ATP is depleted, and then stopped by the addition of 20 μl of Kinase-Glo solution (Promega Corp., Madison, Wis., USA). The stopped reaction is incubated for 5 minutes and the remaining ATP is then detected via luminescence. IC50 values are then determined.

The target in assay [2] is T2, PI3K delta (Homo sapiens, UniProt O00329).
T2 construct: for the full-length p110-d subunit are generated and fused by overlapping PCR; His tag (C); made in house; host or cells: baculovirus BV1060; Tn5 (Trichoplusia ni) or TiniPro insect cells
T2 sequence (O00329 with tags, fused parts or gaps limits assumed, species assumed): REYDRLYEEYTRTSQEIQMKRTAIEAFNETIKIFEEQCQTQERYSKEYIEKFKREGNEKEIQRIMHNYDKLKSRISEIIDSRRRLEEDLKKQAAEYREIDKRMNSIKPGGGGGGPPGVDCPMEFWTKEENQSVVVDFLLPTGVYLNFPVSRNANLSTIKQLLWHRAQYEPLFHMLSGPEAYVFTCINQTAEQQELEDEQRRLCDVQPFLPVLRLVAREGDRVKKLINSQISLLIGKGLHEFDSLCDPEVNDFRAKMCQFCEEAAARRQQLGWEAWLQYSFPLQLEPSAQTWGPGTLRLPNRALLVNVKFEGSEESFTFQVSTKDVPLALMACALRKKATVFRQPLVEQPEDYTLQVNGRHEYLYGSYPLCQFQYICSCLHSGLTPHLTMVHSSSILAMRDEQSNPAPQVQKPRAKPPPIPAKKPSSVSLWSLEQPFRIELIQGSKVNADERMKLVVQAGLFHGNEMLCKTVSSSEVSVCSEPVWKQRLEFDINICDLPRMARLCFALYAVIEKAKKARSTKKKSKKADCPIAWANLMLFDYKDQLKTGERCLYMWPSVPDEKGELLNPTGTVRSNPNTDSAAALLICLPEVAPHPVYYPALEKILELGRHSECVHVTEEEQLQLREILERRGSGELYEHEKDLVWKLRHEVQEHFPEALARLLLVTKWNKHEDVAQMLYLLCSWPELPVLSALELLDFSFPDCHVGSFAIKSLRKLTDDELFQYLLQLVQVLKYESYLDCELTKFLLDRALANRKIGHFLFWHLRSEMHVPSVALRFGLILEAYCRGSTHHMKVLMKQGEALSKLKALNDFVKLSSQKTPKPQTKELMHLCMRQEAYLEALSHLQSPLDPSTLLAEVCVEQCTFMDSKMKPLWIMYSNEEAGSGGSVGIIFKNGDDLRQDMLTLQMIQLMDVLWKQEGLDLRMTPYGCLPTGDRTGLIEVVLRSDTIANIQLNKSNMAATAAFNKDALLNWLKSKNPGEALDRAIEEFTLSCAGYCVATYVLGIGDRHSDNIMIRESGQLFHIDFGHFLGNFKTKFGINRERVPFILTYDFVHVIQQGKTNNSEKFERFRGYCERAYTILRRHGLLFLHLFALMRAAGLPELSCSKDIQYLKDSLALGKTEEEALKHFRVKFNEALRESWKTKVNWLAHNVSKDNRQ
The experiment in a line: Enzymatic PI3K delta isoform inhibition (lipid kinase activity, Kinase-Glo). The class given is biochemical. The note with it: enzymatic assay. As for the experimental part:
as §1, §2, §3

Where only a bound is given, the exact number is not on record here.

T1 sequence (P42336 with tags, fused parts or gaps limits assumed, species assumed): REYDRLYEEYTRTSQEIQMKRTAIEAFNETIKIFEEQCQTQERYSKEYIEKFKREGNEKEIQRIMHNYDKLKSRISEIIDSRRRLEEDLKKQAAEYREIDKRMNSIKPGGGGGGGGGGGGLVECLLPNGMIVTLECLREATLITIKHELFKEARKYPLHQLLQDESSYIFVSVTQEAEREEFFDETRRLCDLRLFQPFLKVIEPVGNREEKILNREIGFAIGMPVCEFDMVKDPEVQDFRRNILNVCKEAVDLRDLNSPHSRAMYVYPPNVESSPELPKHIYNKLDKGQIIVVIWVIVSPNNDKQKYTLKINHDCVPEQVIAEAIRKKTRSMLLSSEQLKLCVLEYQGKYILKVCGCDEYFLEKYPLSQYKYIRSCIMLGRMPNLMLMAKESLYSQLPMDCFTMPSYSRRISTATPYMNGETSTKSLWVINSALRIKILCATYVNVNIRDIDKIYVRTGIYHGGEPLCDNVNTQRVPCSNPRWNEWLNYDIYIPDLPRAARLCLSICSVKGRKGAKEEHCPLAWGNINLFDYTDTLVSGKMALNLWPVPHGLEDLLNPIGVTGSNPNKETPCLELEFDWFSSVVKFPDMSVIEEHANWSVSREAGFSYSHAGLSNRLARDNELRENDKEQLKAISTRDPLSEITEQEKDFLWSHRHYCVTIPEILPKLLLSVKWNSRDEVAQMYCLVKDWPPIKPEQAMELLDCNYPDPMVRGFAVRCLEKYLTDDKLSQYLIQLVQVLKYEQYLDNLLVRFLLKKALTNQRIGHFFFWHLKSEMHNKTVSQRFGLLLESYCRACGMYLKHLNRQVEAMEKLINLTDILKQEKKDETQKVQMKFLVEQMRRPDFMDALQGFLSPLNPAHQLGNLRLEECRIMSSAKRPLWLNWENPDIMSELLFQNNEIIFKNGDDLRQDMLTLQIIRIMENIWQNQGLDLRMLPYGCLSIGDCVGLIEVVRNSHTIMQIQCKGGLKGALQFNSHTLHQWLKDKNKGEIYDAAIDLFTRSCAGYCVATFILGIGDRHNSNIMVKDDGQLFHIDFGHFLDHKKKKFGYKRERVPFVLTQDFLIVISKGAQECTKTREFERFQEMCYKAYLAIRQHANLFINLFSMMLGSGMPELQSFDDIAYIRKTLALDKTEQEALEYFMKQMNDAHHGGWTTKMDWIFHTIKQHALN

For orientation: IC50 means the concentration needed to halve the response being measured. Lower therefore signals higher potency. As for `COc1ncc(-c2ccc3ncnc(-c4ccnc(C(=O)N5CCN(C(C)=O)CC5)c4)c3c2)cn1` [Example 112, 1-(4-{4-[6-(2-Methoxy-pyrimidin-5-yl)-quinazolin-4-yl]-pyridine-2-carbonyl}-piperazin-1-yl)-ethanone], the IC50 in assay [1] is 2320 nM; in assay [2], 49 nM.

Regarding `COc1ncc(-c2ccc3ncnc(-c4cncc(C(=O)N5CCN(C)CC5)c4)c3c2)cn1` [Example 59], the IC50 is 1710 nM in assay [1] and 31.5 nM in assay [2].

In the case of `COc1ncc(-c2ccc3ncnc(-c4cncc(C(=O)N5CCOC(C)(C)C5)c4)c3c2)cc1C(F)(F)F` [Example 61], the half-maximal inhibitory concentration (IC50) was 390 nM in assay [1] and 3 nM in assay [2].

On to `CN1CCN(C(=O)c2cccc(-c3ncnc4ccc(-c5cncc(S(C)(=O)=O)c5)cc34)c2)CC1` [Example 24], for which the IC50 in assay [1] stood at 400 nM; in assay [2] it was 15 nM.

`COc1ccc(-c2ccc3ncnc(-c4cccc(C(=O)N5CCC(O)CC5)c4)c3c2)cn1` [Example 94, (4-Hydroxy-piperidin-1-yl)-{3-[6-(6-methoxy-pyridin-3-yl)-quinazolin-4-yl]-phenyl}-methanone]: the results for the IC50 in assay [1] and in assay [2] were 174 nM and 6 nM, respectively.

`COc1ncc(-c2ccc3ncnc(-c4ccnc(C(=O)N5CCN(C(C)=O)CC5)c4)c3c2)cc1C(F)(F)F` [Example 114, 1-(4-{4-[6-(6-Methoxy-5-trifluoromethyl-pyridin-3-yl)-quinazolin-4-yl]-pyridine-2-carbonyl}-piperazin-1-yl)-ethanone]: the IC50 was found to be 71 nM in assay [1] and 3 nM in assay [2].

In the case of `COc1ccc(-c2ccc3ncnc(-c4cccc(C(=O)N5CCN(C(C)=O)C(C)(C)C5)c4)c3c2)cn1` [Example 36, 1-(4-{3-[6-(6-Methoxy-pyridin-3-yl)-quinazolin-4-yl]-benzoyl}-2,2-dimethyl-piperazin-1-yl)-ethanone], the IC50 in assay [1] amounted to 217 nM; in assay [2], 4.5 nM.

Turning to `CN1CCN(C(=O)c2cccc(-c3ncnc4ccc(-c5cnc(N(C)C)nc5)cc34)c2)CC1` [Example 11], the IC50 in assay [1] was determined as 1070 nM; in assay [2], 28 nM.

In the case of `COc1ncc(-c2ccc3ncnc(-c4cc(C)cc(C(=O)N5CCN(C(C)=O)CC5)c4)c3c2)cc1C#N` [Example 109, 5-{4-[3-(4-Acetyl-piperazine-1-carbonyl)-5-methyl-phenyl]-quinazolin-6-yl}-2-methoxy-nicotinonitrile], the values for the IC50 in assay [1] and in assay [2] were 435 nM and 14 nM, respectively.

In the case of `CCN(CC)S(=O)(=O)c1cc(-c2ccc3ncnc(-c4cccc(C(=O)N5CCN(C)CC5)c4)c3c2)ccc1OC` [Example 23], the results for the IC50 in assay [1] and in assay [2] were 931 nM and 12.5 nM, respectively.

In the case of `COc1ncc(-c2ccc3ncnc(-c4ccnc(C(=O)N5CCN(C(C)=O)CC5)c4)c3c2)cc1C#N` [Example 113, 5-{4-[2-(4-Acetyl-piperazine-1-carbonyl)-pyridin-4-yl]-quinazolin-6-yl}-2-methoxy-nicotinonitrile], the IC50 in assay [1] stood at 979 nM; in assay [2], 18 nM.

In the case of `COc1ncc(-c2ccc3ncnc(-c4cncc(C(=O)N5CCOC(C)(C)C5)c4)c3c2)cc1F` [Example 63], the 50% inhibitory concentration (IC50) in assay [1] came to 505 nM; in assay [2], 6 nM.

Take `CN1CCN(C(=O)c2cccc(-c3ncnc4ccc(-c5ccc(NS(C)(=O)=O)c(C(F)(F)F)c5)cc34)c2)CC1` [Example 48]: the concentration for half-maximal inhibition (IC50) turned out to be 3800 nM in assay [1] and 47.5 nM in assay [2].

Consider `COc1ncc(-c2ccc3ncnc(-c4cncc(C(=O)N5CCN(C(C)=O)CC5)c4)c3c2)cc1C(F)(F)F` [Example 54], for which the IC50 worked out at 69 nM in assay [1] and 3 nM in assay [2].

Take `COc1ncc(-c2ccc3ncnc(-c4cncc(C(=O)N5CCOCC5)c4)c3c2)cc1C(F)(F)F` [Example 68]: the figures for the IC50 in assay [1] and in assay [2] were 97 nM and 3 nM, respectively.

On to `COc1ccc(-c2ccc3ncnc(-c4cncc(C(=O)N5C[C@@H]6C[C@H]5CN6)c4)c3c2)cc1C(F)(F)F` [Example 85, (1S,4S)-2,5-Diaza-bicyclo[2.2.1]hept-2-yl-{5-[6-(4-methoxy-3-trifluoromethyl-phenyl)-quinazolin-4-yl]-pyridin-3-yl}-methanone], for which the IC50 in assay [1] amounted to 793 nM; in assay [2], 7 nM.

Take `COc1ncc(-c2ccc3ncnc(-c4cccc(C(=O)N5C[C@@H]6C[C@H]5CN6C)c4)c3c2)cc1C(F)(F)F` [Example 29]: the IC50 was 75 nM in assay [1] and 3 nM in assay [2].

For the molecule `CN1CCN(C(=O)c2cccc(-c3ncnc4ccc(-c5ccc(N6CCNCC6)nc5)cc34)c2)CC1` [Example 18], the IC50 in assay [1] is 1290 nM; in assay [2], 42.1 nM.

In the case of `CNc1ncc(-c2ccc3ncnc(-c4cccc(C(=O)N5CCN(C)CC5)c4)c3c2)cc1C` [Example 40, {3-[6-(5-Methyl-6-methylamino-pyridin-3-yl)-quinazolin-4-yl]-phenyl}-(4-methyl-piperazin-1-yl)-methanone], the IC50 in assay [1] came out at 270 nM; in assay [2], 3 nM.

Consider `COc1ccc(-c2ccc3ncnc(-c4cc(Cl)cc(C(=O)N5CCN(C(C)=O)CC5)c4)c3c2)cn1` [Example 107, 1-(4-{3-Chloro-5-[6-(6-methoxy-pyridin-3-yl)-quinazolin-4-yl]-benzoyl}-piperazin-1-yl)-ethanone], for which the IC50 in assay [1] was 716 nM; in assay [2] it was 5 nM.

Turning to `COc1ccc(-c2ccc3ncnc(-c4cccc(C(=O)N5CCNC(C)(C)C5)c4)c3c2)cn1` [Example 88, (3,3-Dimethyl-piperazin-1-yl)-{3-[6-(6-methoxy-pyridin-3-yl)-quinazolin-4-yl]-phenyl}-methanone], the IC50 was found to be 100 nM in assay [1] and 2.67 nM in assay [2].

For `COc1ncc(-c2ccc3ncnc(-c4cncc(C(=O)N5CCOCC5)c4)c3c2)cc1C#N` [Example 69], the half-inhibitory concentration (IC50) came out at 880 nM in assay [1] and 8 nM in assay [2].

Consider `COc1ccc(-c2ccc3ncnc(-c4cccc(C(=O)N5C[C@@H]6C[C@H]5CN6)c4)c3c2)cc1C(F)(F)F` [Example 39], for which the IC50 in assay [1] amounted to 770 nM; in assay [2] it was 11.5 nM.

For the molecule `CC1(C)CN(C(=O)c2cccc(-c3ncnc4ccc(-c5ccc(N)nc5)cc34)c2)CCO1` [Example 32], the IC50 worked out at 174 nM in assay [1] and 7 nM in assay [2].

Regarding `CN1CCN(C(=O)c2cccc(-c3ncnc4ccc(-c5ccc(N(C)C)nc5)cc34)c2)CC1` [Example 17], the IC50 in assay [1] turned out to be 352 nM; in assay [2] it was 6.38 nM.

In the case of `CN1CCN(C(=O)c2cccc(-c3ncnc4ccc(-c5ccc(S(N)(=O)=O)c(C(F)(F)F)c5)cc34)c2)CC1` [Example 46], the IC50 worked out at 5300 nM in assay [1] and 23.5 nM in assay [2].

With `COc1ncc(-c2ccc3ncnc(-c4cncc(C(=O)N5CCN(C)C(C)(C)C5)c4)c3c2)cc1C` [Example 72], the concentration for half-maximal inhibition (IC50) stood at 69.5 nM in assay [1] and 3 nM in assay [2].

`CN1CCN(C(=O)c2cncc(-c3ncnc4ccc(-c5cnc(N)nc5)cc34)c2)CC1` [Example 60]: the IC50 in assay [1] came to 657 nM; in assay [2], 19.5 nM.

For `COc1ccc(-c2ccc3ncnc(-c4cccc(C(=O)N5CCN(C)CC5)c4)c3c2)cc1C(=O)N(C)C` [Example 49, 2-Methoxy-N,N-dimethyl-5-{4-[3-(4-methyl-piperazine-1-carbonyl)-phenyl]-quinazolin-6-yl}-benzamide], the IC50 in assay [1] was determined as 8950 nM; in assay [2], 35.5 nM.

As for `COc1ncc(-c2ccc3ncnc(-c4cncc(C(=O)N5CCN(C)C(C)(C)C5)c4)c3c2)cc1C(F)(F)F` [Example 74], the IC50 in assay [1] is 150 nM; in assay [2], 5 nM.

`COc1ccc(-c2ccc3ncnc(-c4cccc(C(=O)N5CCS(=O)(=O)CC5)c4)c3c2)cn1` [Example 93, (1,1-Dioxo-1lambda*6*-thiomorpholin-4-yl)-{3-[6-(6-methoxy-pyridin-3-yl)-quinazolin-4-yl]-phenyl}-methanone]: the results for the IC50 in assay [1] and in assay [2] were 120 nM and < 3 nM, respectively.

`COc1ccc(-c2ccc3ncnc(-c4cncc(C(=O)N5CCN(C)C(C)(C)C5)c4)c3c2)cn1` [Example 78, {5-[6-(6-Methoxy-pyridin-3-yl)-quinazolin-4-yl]-pyridin-3-yl}-(3,3,4-trimethyl-piperazin-1-yl)-methanone]: the IC50 in assay [1] stood at 123 nM; in assay [2], 4.5 nM.

With `COc1ccc(-c2ccc3ncnc(-c4cccc(C(=O)N5CCNC[C@H]5C)c4)c3c2)cn1` [Example 97, {3-[6-(6-Methoxy-pyridin-3-yl)-quinazolin-4-yl]-phenyl}-((R)-2-methyl-piperazin-1-yl)-methanone], the results for the IC50 in assay [1] and in assay [2] were 463 nM and 23 nM, respectively.

As to `COc1ccc(-c2ccc3ncnc(-c4cccc(C(=O)N5CCOC(C)(C)C5)c4)c3c2)cn1` [Example 95, (2,2-Dimethyl-morpholin-4-yl)-{3-[6-(6-methoxy-pyridin-3-yl)-quinazolin-4-yl]-phenyl}-methanone], the IC50 was found to be 281 nM in assay [1] and 9 nM in assay [2].

Take `COc1ccc(-c2ccc3ncnc(-c4cncc(C(=O)N5CCOCC5)c4)c3c2)cc1C(F)(F)F` [Example 82, {5-[6-(4-Methoxy-3-trifluoromethyl-phenyl)-quinazolin-4-yl]-pyridin-3-yl}-morpholin-4-yl-methanone]: the IC50 in assay [1] came out at 1330 nM; in assay [2], 21.5 nM.

`Cc1ccc(-c2ccc3ncnc(-c4cccc(C(=O)N5CCN(C)CC5)c4)c3c2)cc1S(C)(=O)=O` [Example 43]: the concentration for half-maximal inhibition (IC50) in assay [1] came out at 374 nM; in assay [2], 11 nM.
